This is an account of results in paper PMC8625693, “Synthesis and Structure-Activity Relationships of New 2-Phenoxybenzamides with Antiplasmodial Activity” (Pharmaceuticals, 2021).

Usually IC50 stands for the concentration that gives 50% inhibition. By Papp is commonly meant a coefficient for how fast a substance crosses the barrier. Lower therefore signals poor permeation. By inhibition is commonly meant the share of the control response that was lost under treatment. By melting point is commonly meant the temperature, or range, at which the solid turns liquid.

Like-named read-outs stand apart in the source and are kept apart here.

The test system of one series is P. falciparum NF54. Kind of series: In vitro microplate assay against P. falciparum NF54 (3H-hypoxanthine incorporation, erythrocytic stages). The format is cell-based, Plasmodium falciparum. Particulars: average of four determinations, read-out: P.f. NF54 IC50. As for the experimental part:
(§1) All newly synthesized compounds were tested for their antiplasmodial activity against the chloroquine-sensitive strain Plasmodium falciparum NF54. Cytotoxicity was determined using rat skeletal myofibroblasts (L-6 cells). As standards chloroquine and podophyllotoxin were used.
In vitro activity against erythrocytic stages of P. falciparum was determined with a ^3H-hypoxanthine incorporation assay, using the chloroquine sensitive NF54 strain [44]. Chloroquine (Sigma C6628) was used as standard. Test compounds were dissolved in DMSO at 10 mg/mL and added to parasite cultures incubated in RPMI 1640 medium without hypoxanthine, supplemented with HEPES (5.94 g/L, NaHCO3 (2.1 g/L), neomycin (100 U/mL), Albumax (5 g/L) and washed human red blood cells A^+ at 2.5% hematocrit (0.3% parasitemia). Serial drug dilutions of 11 3-fold dilution steps (covering a range from 100–0.002 µg/mL) were prepared. The 96-well plates were incubated at a humidified atmosphere at 37 °C; 4% CO2, 3% O2, 93% N2. After 48 h, 0.05 mL of ^3H-hypoxanthine (=0.5 µCi) was added to each well. The plates were incubated for another 24 h under the same conditions. Then, the plates were harvested with a Betaplate cell harvester (Wallac, Zurich, Switzerland). The red blood cells were transferred onto glass fiber filter and washed with distilled water. The dried filters were inserted into a plastic foil with 10 mL of scintillation fluid and counted in a Betaplate liquid scintillation counter. IC50 values were determined from sigmoidal inhibition curves by linear regression using Microsoft Excel. Chloroquine was used as control.

Series [1] in a line: Parallel artificial membrane permeability assay (PAMPA). Particulars: pH 7.4. As to the method: The PAMPA was performed using a Corning Gentest Pre-coated PAMPA Plate System at a pH of 7.4. It consists of 96-well polystyrene plates, whereas the donor-plate (bottom plate) is a conventional 96-well microtiter plate. The base of the acceptor-plate (top plate) consists of a porous membrane. The pores are lined with a lipid-oil-lipid trilayer. Stock solutions (10 mM) of each test compound were prepared in DMSO or MeOH and then further diluted to a final concentration of 200 µM with phosphate-buffered saline (PBS) at a pH of 7.4. Compound solutions were then added to the wells of the donor plate and pure PBS was added to each well of the acceptor plate. Compounds and negative control (pure PBS) were tested in quadruplicates. Donor and acceptor plate were coupled and incubated at ambient temperature for 5 h. After that, the plates were separated and solutions from each well of both plates were transferred onto 96-well UV-Star Microplates (Greiner Bio-One). The UV-absorption was measured at different wavelengths (between 200 and 300 nm) by a SpectraMax M3 UV plate reader (Molecular Devices). The concentrations were received from a calibration curve for each substance. The plates were analyzed at a wavelength were the R^2 value of the calibration curve was higher than 0.99 [48]. […] (2) cequ=cDt* VD+cAt* VA/VD+VA where: • cD(t)—compound concentration in donor well at time t.
Recovery of compounds from donor and acceptor wells (mass retention) was calculated as shown in the equation below. Data were only accepted when recovery exceeded 70%. (3) R=1−cDt∗ VD+cAt∗ VA/c0∗ VD where: • R—mass retention (%); • cA(t)—compound concentration in acceptor well at time t; • cD(t)—compound concentration in donor well at time t; • c0—initial compound concentration in donor well; • VD—donor well volume; • VA—acceptor well volume.

The subject of the next series is P. falciparum. Particulars: long-term in vitro, sub-lethal doses, cited from earlier work.
A short description of series [2]: In vitro cytotoxicity with L-6 cells (Alamar Blue). Format: cell-based, rat. Particulars: rat, Cytotoxicity L-6 Cells IC50. As for the experimental part: as §1
(§2) In vitro cytotoxicity was determined using a primary cell line of rat skeletal myofibroblasts. The assay was performed in 96-well microtiter plates, each well containing 0.1 mL of RPMI 1640 medium, supplemented with 0.1% L-glutamine (200 mM) and 10% fetal bovine serum, as well as 4000 L-6 cells. Serial drug dilutions of 11 3-fold dilution steps (covering a range from 100–0.002 µg/mL) were prepared. After 70 h of incubation time, the plates were inspected under an inverted microscope to ensure sterile conditions and growth of the controls. […] Podophyllotoxin (Sigma P4405) was used as control.

Another series has as its system P. falciparum 3D7-A10. The arrangement: method as in PMID 31813848, PMID 32682267. Particulars: erythrocytic cycle of 40 h, different drug concentrations; cited from earlier work.
Another series concerns the target T1, CYP3A4 (Homo sapiens, UniProt P08684).
T1 construct: purchased Corning, Glendale, AZ, USA
Kind of series: Cytochrom P450 3A4 inhibition assay (P450-Glo, luciferin-IPA). The format is in vitro ADME. The settings on record: recombinant human CYP3A4 Supersomes (+ oxidoreductase + b5), probe luciferin-IPA, stock solutions diluted to 20 µM, pH 7.4, triplicate. As for the experimental part:
The CYP3A4 inhibition assay was performed using 96-well White Plates (Greiner Bio-One) at a pH of 7.4. […] Stock solutions were further diluted to a final concentration of 20 µM using water (HPLC grade). The luciferin IPA stock solution (3 mM) was diluted to a final concentration of 0.3 mM using water (HPLC grade). The CYP3A4 reaction mixture was prepared by mixing water (HPLC grade) with potassium phosphate buffer (1 M), luciferin IPA (0.3 mM) and CYP3A4 membrane (1 pmol/µL). The control reaction mixture was prepared using water (HPLC grade), potassium phosphate buffer (1 M), luciferin IPA (0.3 mM) and membrane without CYP activity (1 pmol/µL). Solutions A and B of the NADPH regeneration system were mixed and HPLC grade water was added. The reconstituted luciferin detection reagent was prepared by mixing the reconstituted buffer with esterase with the luciferin detection reagent. Then, solutions of test compounds and standard were added to the wells of the 96-well White Plate, each was tested in triplicate. The CYP3A4 reaction mixture was added to each well and the plate was incubated for 10 min at room temperature. After that, the NADPH regeneration system was added, inducing the reaction followed by an incubation time of 10 min at ambient temperature. By adding the reconstituted luciferin detection reagent, the reaction was terminated, and a luminescent signal was formed. Luminescence was measured by a SpectraMax M3 UV plate reader (Molecular Devices). The relative light units (RLU) were received from a calibration curve with beetle luciferin. […] The CYP3A4 inhibition (%) was calculated from the RLU.

In the next series the test system is L-6 cells. Kind of series: In vitro cytotoxicity with L-6 cells (Alamar Blue). Particulars: rat, 72 h. Format: cell-based, rat. As to the method: as §1, §2
[3] abbreviates: Plasmodium falciparum, NF54, chloroquine-sensitive strain NF54, blood stages.
Setting [4] is: chloroquine-sensitive strain NF54, blood stages.

T1 sequence (P08684 2-503 limits assumed): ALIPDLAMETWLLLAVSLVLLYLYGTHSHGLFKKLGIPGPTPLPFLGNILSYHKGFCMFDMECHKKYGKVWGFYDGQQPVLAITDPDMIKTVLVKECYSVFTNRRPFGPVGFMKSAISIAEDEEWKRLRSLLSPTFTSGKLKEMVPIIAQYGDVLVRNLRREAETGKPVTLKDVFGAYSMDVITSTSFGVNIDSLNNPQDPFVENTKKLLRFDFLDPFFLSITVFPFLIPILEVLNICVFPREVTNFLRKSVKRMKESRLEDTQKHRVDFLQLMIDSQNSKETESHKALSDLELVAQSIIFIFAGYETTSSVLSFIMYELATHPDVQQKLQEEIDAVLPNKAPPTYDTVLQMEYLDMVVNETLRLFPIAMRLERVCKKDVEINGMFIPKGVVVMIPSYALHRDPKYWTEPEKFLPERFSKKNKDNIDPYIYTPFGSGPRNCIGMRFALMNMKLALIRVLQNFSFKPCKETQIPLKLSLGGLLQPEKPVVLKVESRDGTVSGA

As to `CC(C)(C)OC(=O)N1CCN(c2ccccc2NC(=O)c2cccc(C(F)(F)F)c2Oc2ccc(F)cc2)CC1` [Compound 1, tert-Butyl-4-{2-[2-(4-fluorophenoxy)-3-(trifluoromethyl)benzamido]phenyl}piperazine-1-carboxylate], in the series on P. falciparum NF54 (setting [3]), the half-maximal inhibitory concentration (IC50) stood at 0.413 µM. Besides, in series [1], the Papp at 5 h, 200 µM was 2.37 ×10⁻⁶ cm/s. In addition, the resistance development result is recorded as “did neither acquire resistances, nor cross-resistances” in the series with P. falciparum and “development of resistant parasites could not be observed” with P. falciparum (listed as MMV030666). Besides, in series [2], the concentration for half-maximal inhibition (IC50) at 72 h is 131 µM. For the same molecule, the stage specific activity result in the series on P. falciparum 3D7-A10 is reported as “peak activity in sub-micromolar concentrations on late stage trophozoites”. For the same molecule, at CYP3A4, the inhibition at 10 min, 20 µM was determined as 87%.
`O=C(Nc1ccccc1)c1cccc(C(F)(F)F)c1Oc1ccc(F)cc1` [Compound 12, 2-(4-Fluorophenoxy)-N-phenyl-3-(trifluoromethyl)benzamide]: the half-inhibitory concentration (IC50) is 9.33 to 21.3 µM with P. falciparum NF54 (setting [3]), 9.33 µM with P. falciparum NF54 (setting [4]) and 202 µM with L-6 cells. Further, in series [1], the Papp at 5 h, 200 µM is 10.1 ×10⁻⁶ cm/s. Moreover, the IC50 at 72 h in series [2] was in the range of 129 to 202 µM.
With `O=CN1CCN(c2ccccc2NC(=O)c2cccc(C(F)(F)F)c2Oc2ccc(F)cc2)CC1` [Compound 18, 2-(4-Fluorophenoxy)-N-[2-(4-formylpiperazin-1-yl)phenyl]-3-(trifluoromethyl)benzamide], the 50% inhibitory concentration (IC50) with P. falciparum NF54 (setting [3]) is 6.58 to 15.6 µM; in the series on P. falciparum NF54 (setting [4]) it was 6.58 µM; in the series with L-6 cells, 31.8 µM. Moreover, the apparent permeability coefficient (Papp) at 5 h, 200 µM in series [1] is 1.05 ×10⁻⁶ cm/s. Further, the 50% inhibitory concentration (IC50) at 72 h in series [2] was in the range of 31.8 to 35.4 µM. Further, the inhibition at 10 min, 20 µM on CYP3A4 turned out to be 82%.
In the case of `CC(C)(C)C(=O)N1CCN(c2ccccc2NC(=O)c2cccc(C(F)(F)F)c2Oc2ccc(F)cc2)CC1` [Compound 19, N-{2-[4-(2,2-Dimethylpropanoyl)piperazin-1-yl]phenyl}-2-(4-fluorophenoxy)-3-(trifluoromethyl)benzamide], the IC50 in the series on P. falciparum NF54 (setting [3]) was 0.617 to 0.659 µM; in the series on P. falciparum NF54 (setting [4]), 0.617 µM; with L-6 cells, 185 µM. The molecule further came in with an apparent permeability coefficient (Papp) at 5 h, 200 µM in series [1] of 0.23 ×10⁻⁶ cm/s. This molecule also gave a half-maximal inhibitory concentration (IC50) at 72 h in series [2] of 185 to 190 µM. In addition, the inhibition at 10 min, 20 µM on CYP3A4 was determined as 94%.
`CC(C)(C)N1CCN(c2ccccc2NC(=O)c2cccc(C(F)(F)F)c2Oc2ccc(F)cc2)CC1` [Compound 20, 2-(4-Fluorophenoxy)-N-[2-(4-tert-butylpiperazin-1-yl)phenyl]-3-(trifluoromethyl)benzamide] showed a melting point of 142 to 145 °C. In the series with P. falciparum NF54 (setting [3]), the 50% inhibitory concentration (IC50) was determined as 2.89 µM. The apparent permeability coefficient (Papp) at 5 h, 200 µM in series [1] is 2.48 ×10⁻⁶ cm/s. For the same molecule, it took 34.7 µM to reach half-maximal inhibition in series [2] (IC50 at 72 h).
Regarding `CC(C)(C)C(=O)N1CCN(c2cccc(NC(=O)c3cccc(C(F)(F)F)c3Oc3ccc(F)cc3)c2)CC1` [Compound 38, N-{3-[4-(2,2-Dimethylpropanoyl)piperazin-1-yl]phenyl}-2-(4-fluorophenoxy)-3-(trifluoromethyl)benzamide], the figures for the IC50 with P. falciparum NF54 (setting [3]) and with L-6 cells were 3.17 µM and 78 µM, respectively. For the same molecule, the apparent permeability (Papp) at 5 h, 200 µM in series [1] is 1.17 ×10⁻⁶ cm/s. In addition, the 50% inhibitory concentration (IC50) at 72 h in series [2] was in the range of 78 to 99.6 µM.
`CC(C)(C)C(=O)N1CCN(c2ccc(NC(=O)c3cccc(C(F)(F)F)c3Oc3ccc(F)cc3)cc2)CC1` [Compound 39, N-{4-[4-(2,2-Dimethylpropanoyl)piperazin-1-yl]phenyl}-2-(4-fluorophenoxy)-3-(trifluoromethyl)benzamide]: the IC50 is 0.269 µM in the series on P. falciparum NF54 (chloroquine-sensitive strain NF54, blood stages, H, N-pivaloylpiperazinyl); 0.58 µM in the series with P. falciparum NF54 (setting [4]); 99.6 µM in the series on L-6 cells. Also, the Papp at 5 h, 200 µM in series [1] turned out to be 0.24 ×10⁻⁶ cm/s. For the same molecule, the half-inhibitory concentration (IC50) at 72 h in series [2] lay within 78 to 99.6 µM. Besides, on CYP3A4, the inhibition at 10 min, 20 µM was 89%.
As to `CC(C)(C)OC(=O)N1CCN(c2ccc(NC(=O)c3cccc(C(F)(F)F)c3Oc3ccccc3)cc2)CC1` [Compound 54, tert-Butyl-4-{4-[2-phenoxy-3-(trifluoromethyl)benzamido]phenyl}piperazine-1-carboxylate], the figures for the IC50 in the series on P. falciparum NF54 (setting [3]) and in the series with L-6 cells were 1.22 µM and 185 µM, respectively. In series [1], this molecule returned an apparent permeability coefficient (Papp) at 5 h, 200 µM of 1.22 ×10⁻⁶ cm/s. Besides, in series [2], the half-inhibitory concentration (IC50) at 72 h is 124 µM. The inhibition at 10 min, 20 µM on CYP3A4 is 80%.
For `CC(C)(C)C(=O)N1CCN(c2ccccc2NC(=O)c2cccc(C(F)(F)F)c2Oc2ccccc2)CC1` [Compound 56, N-{2-[4-(2,2-Dimethylpropanoyl)piperazin-1-yl]phenyl}-2-phenoxy-3-(trifluoromethyl)benzamide], the concentration for half-maximal inhibition (IC50) was 0.617 to 0.659 µM in the series with P. falciparum NF54 (setting [3]), 0.659 µM in the series with P. falciparum NF54 (setting [4]) and 190 µM with L-6 cells. The apparent permeability (Papp) at 5 h, 200 µM in series [1] was determined as 0.11 ×10⁻⁶ cm/s. For the same molecule, the half-inhibitory concentration (IC50) at 72 h in series [2] lay within 185 to 190 µM.
